We go through 14 compounds from patent US6743785B2, “Agents and methods for the treatment of proliferative diseases” (Eli Lilly and Company, priority 1999, dated 2004).

Bounds are passed on as bounds.

The target of test [1] is T1, cyclin D1-cdk4 (Homo sapiens, UniProt P11802). As to the kind of experiment: Assay of Cyclin D1-cdk4 kinase activity with the ING peptide as substrate. It counts as biochemical. As to conditions: 200 uM ING peptide, 300 uM ATP, 60 minutes, room temperature. The procedure:
Assay of Cyclin D1-cdk4 kinase activity with the ING Peptide as Substrate
The cyclin D1-cdk4 kinase activity of a compound was assayed by preparing a 100 ul reaction at the following concentrations: 35 mM Hepes pH 7.0, 10 mM MgCl2, 300 uM ATP, 200 uM ING peptide, 1.0 uCi of γ-^33P-ATP, 4.34 ug of cyclin D-cdk4 enzyme, 4% DMSO, and various concentrations of inhibitor. The reaction was incubated at room temperature (about 74° F.) for 60 minutes, and then terminated by the addition of 100 ul of 10% phosphoric acid. Next, the reaction was filtered through a Millipore Multiscreen-PH Plate—Catalog number MAPH NOB 10, and the plate was washed 2 times with 320 ul each of 0.5% phosphoric acid, followed by the addition of 100 ul of scintillation fluid and quantitation on a Packard Instruments, Top Count, scintillation counter.

For test [2], the system named is HCT-116 and NCI H460 cell lines. Nature of the test: Cell cycle analysis using flow cytometry. In kind it is cell-based. As to conditions: compound at 1x IC50 and 3x IC50, 24 hours, DNA histogram analysis. The procedure:
Cell Cycle Analysis Using Flow Cytometry
The HCT-116 and NCI H460 cell lines were seeded in 75 cm^2 flasks at 5×10^5 cells/25 ml RPMI 1640 medium containing 10% dialyzed fetal bovine serum. They were incubated for 24 hours. […] The cells were subsequently harvested and the protocol (Robinson, J. P. and Darzynkiewicz, Z. Current Protocols in Cytometry. 1997) for staining was followed. DNA histogram analysis was performed using ModFit LT(Verity House).

Test [3] concerns HCT-116 or NCI H460 cells. As to the kind of experiment: Cell growth inhibition assay (MTT). Conditions: 72 h drug exposure. It counts as cell-based. As to the method: Cell Growth Inhibition Assay The MTT assay was used to measure growth inhibitory activity (Schultz, R. M., et. al. Oncology Res. 5, 223-228, 1993). […] Basically, 1000 HCT-116 or NCI H460 cells were added per well to 96-well flat-bottom plates in 100-ul RPMI 1640 medium containing 10% dialyzed fetal bovine serum. The plates were incubated for 24 h prior to addition of test compounds. A stock solution (10 mM) was prepared in DMSO and serially diluted in medium. Compound dilutions were added to triplicate wells, and the plates were incubated for 72 hours.

Test [4] relates to Ser-780 pRb phosphorylation in HCT116 cells. Nature of the test: Inhibition of Rb phosphorylation assay. In kind it is cell-based, Human. As to conditions: 1x, 2x and 3x IC50, 24 hours, immunoblot. The procedure:
Inhibition of Rb Phosphorylation Assay
Human HCT116 colon carcinoma cell line was purchased from American Tissue Culture Collection (Rockville, Md.) and maintained as monolayer in RPMI-1640 with L-Glutamine and 25 mM HEPES supplemented with 10% fetal bovine serum in a 37° C. incubator with a 10% CO2 atmosphere. The detection of mycoplasm in cultured cells was performed using Mycoplasma Rapid Detection System (TaKaRa Shuzo Co. Ltd., Shiga, Japan) every 2-3 months and the cells were found consistently negative throughout these experiments. The Rb phosphorylation assay was done be plating 4×10^5 cells/well in 6-well plates. […] At the end of the incubation period the mediumj was removed and the cells were washed twice with cold PBS containing 1 mM sodium orthovanadate (Na3VO4). […] Protein concentration was determined by the Bio-Rad DC protein assay (Bio-Rad, Hercules, Calif.). […] Proteins were detected by capturing image of the membrane using Quantity One Software on a Fluor-S multi-Imager (Bio-Rad, Hercules, Calif.) in a linear range. Specific bands were quantified using Quantity One Software. […] Results are expressed as a percentage inhibition of Ser-780 pRb phosphorylation in drug treated cells versus control DMSO treated cells.

Test [5] has as its target T1, cyclin D1-cdk4. Nature of the test: Assay of Cyclin D1-cdk4 kinase activity with the Rb21 protein as substrate. In kind it is biochemical. As to conditions: 5 ug Rb21 protein, 30 uM ATP, 60 minutes, room temperature; read-out: Kinase Activity with Rb2l. As to the method: Assay of Cyclin D1-cdk4 Kinase Activity with the Rb21 Protein as Substrate
The cyclin D1-cdk4 kinase activity of a compound was assayed by preparing a 100 ul reaction at the following concentrations: 20 mM Hepes pH 7.0, 10 mM MgCl2, 30 uM ATP, 5 ug of Rb21 protein (Santa Cruz Biotech, Catalog # sc-4112), 1.0 uCi of γ-^33P-ATP, 1.09 ug of cyclin D-cdk4 enzyme, 4% DMSO, and various concentrations of inhibitor. The reaction was incubated at room temperature (about 74° F.) for 60 minutes, and then terminated by the addition of 100 ul of 25% trichloroacetic acid. Next, the reaction was filtered through a Millipore Multiscreen-FC Plate—Catalog number MAFC NOB 10, and the plate was washed 2 times with 320 ul each of 10% trichloroacetic acid, followed by the addition of 100 ul of scintillation fluid and quantitation on a Packard Instruments, Top Count, scintillation counter.

Test [6] concerns protein kinase C. As to conditions: cited from earlier work.
Test [7] concerns protein kinase A. Conditions: cited from earlier work.

T1 sequence (P11802 whole entry): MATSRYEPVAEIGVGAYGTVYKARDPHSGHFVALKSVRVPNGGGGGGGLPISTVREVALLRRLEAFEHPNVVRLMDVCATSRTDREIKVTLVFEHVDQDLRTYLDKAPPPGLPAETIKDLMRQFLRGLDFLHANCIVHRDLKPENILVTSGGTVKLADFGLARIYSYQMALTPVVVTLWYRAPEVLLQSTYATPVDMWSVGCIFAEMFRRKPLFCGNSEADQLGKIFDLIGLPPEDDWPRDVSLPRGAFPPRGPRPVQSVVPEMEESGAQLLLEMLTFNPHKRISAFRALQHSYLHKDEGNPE
T1 sequence (P24385 whole entry partner): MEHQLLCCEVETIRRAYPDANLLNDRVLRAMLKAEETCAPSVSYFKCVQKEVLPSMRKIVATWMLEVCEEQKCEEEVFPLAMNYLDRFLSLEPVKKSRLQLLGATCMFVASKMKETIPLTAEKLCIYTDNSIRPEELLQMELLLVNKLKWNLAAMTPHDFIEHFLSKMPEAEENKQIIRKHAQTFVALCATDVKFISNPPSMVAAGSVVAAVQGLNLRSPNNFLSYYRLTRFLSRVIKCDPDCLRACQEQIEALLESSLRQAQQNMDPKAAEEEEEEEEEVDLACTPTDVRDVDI

As for `CC1(C)CCn2cc(C3=C(c4cn5c6c(cccc46)CNCC5)C(=O)NC3=O)c3cc(F)cc1c32`, the IC50 in test [1] was 186 nM.
On the same count and under the same terms, under `CC1(C)CCn2cc(C3=C(c4cn5c6c(cccc46)CNCC5)C(=O)NC3=O)c3cccc1c32` stands 537 nM.
`Cl.O=C1NC(=O)c2c1c1c3cccc4c3n(c1c1c2c2cccc3c2n1CCNC3)CCC4` [Example 5]: the cell cycle arrest result in test [2] is “arrest cells in the G1 phase of the cell cycle”. The cell growth inhibition entry in test [3] was “inhibit cell growth”. The “inhibition of Ser-780 pRb phosphorylation” value in test [4] is reported as “inhibit Rb (retinoblastoma protein) phosphorylation”.
On to `O=C1NC(=O)c2c1c1c3cccc4c3n(c1c1c2c2cccc3c2n1CCCNC3)CCC4` [drawing 48], for which the IC50 in test [5] was 336 nM.
The compound `O=C1NC(=O)c2c1c1c3cccc4c3n(c1c1c2c2cccc3c2n1CCNC3)CCC4` [drawing 40] had an IC50 in test [1] of 35.4 nM.
On the same count and under the same terms, under `CC1(C)CCn2c3c1cc(F)cc3c1c3c(c4c5cccc6c5n(c4c12)CCNC6)C(=O)NC3=O` stands 413 nM; under `O=C1NC(=O)c2c1c1c3cccc4c3n(c1c1c2c2cccc3c2n1CCCNC3)CCC4` [drawing 39], 605 nM.
Still for that read-out and setting: next, `O=C1NC(=O)C(c2cn3c4c(cccc24)NCCC3)=C1c1cn2c3c(cccc13)CCC2` [drawing 43]: 143 nM.
The same measure, in the same setting: next, `CC1(C)CCc2cccc3c(C4=C(c5cn6c7c(cccc57)CNCC6)C(=O)NC4=O)cn1c23`: 349 nM.
On to `O=C1NC(=O)c2c1c1c3cccc4c3n(c1c1c2c2cccc3c2n1CCNC3)CCC4` [drawing 49], for which the IC50 in test [5] was 5.8 nM.
In test [1], `CC1(C)Cc2cccc3c4c5c(c6c7cccc8c7n(c6c4n(c23)C1)CCNC8)C(=O)NC5=O` yielded an IC50 of 51 nM.
On the same count and under the same terms, next, `CC1(C)Cc2cccc3c(C4=C(c5cn6c7c(cccc57)CNCC6)C(=O)NC4=O)cn(c23)C1`: 621 nM.
Take `O=C1NC(=O)C(c2cn3c4c(cccc24)NCCC3)=C1c1cn2c3c(cccc13)CCC2` [drawing 50]: the IC50 in test [5] is 196 nM.
With `CN1CC[C@H](c2c(O)cc(O)c3c(=O)cc(-c4ccccc4Cl)oc23)[C@H](O)C1` [Flavopiridol], the “concentration at which protein kinase C is inhibited” value in test [6] is on record as not below 10 μM/L. For the same compound, the “concentration at which protein kinase A is inhibited” value in test [7] was not below 10 μM/L.
